Reference: ChEMBL document CHEMBL3217552, “Novel benzothiazole derivatives with a broad antifungal spectrum: design, synthesis and structureactivity relationships” (2013)
Converted amounts (≈) assume the structure as drawn. The source made the active and inactive calls. No cut-off for these calls is given here.

Key:
Trichophyton rubrum = test: Antifungal activity against Trichophyton rubrum after 72 hrs by serial dilution method; format: functional
Cryptococcus neoformans = test: Antifungal activity against Cryptococcus neoformans after 72 hrs by serial dilution method; format: functional
Nakaseomyces glabratus = test: Antifungal activity against Candida glabrata after 24 hrs by serial dilution method; format: functional
Candida parapsilosis = test: Antifungal activity against Candida parapsilosis after 24 hrs by serial dilution method; format: functional; details: Lodderomyces parapsilosis
Candida albicans [1] = test: Antifungal activity against Candida albicans after 24 hrs by serial dilution method; format: functional
Nannizzia gypsea = test: Antifungal activity against Microsporum gypseum after 72 hrs by serial dilution method; format: functional
Candida albicans [2] = test: Antifungal activity against Candida albicans SC5314 infected in Caenorhabditis elegans assessed as nematode survival at 16 ug/ml after 144 hrs by serial dilution method; format: functional; details: SC5314, 144 h
Candida albicans [3] = test: Antifungal activity against Candida albicans SC5314 infected in Caenorhabditis elegans assessed as nematode survival at 32 ug/ml after 144 hrs by serial dilution method; format: functional, organism-based

Compound | MIC80 (Trichophyton rubrum) | MIC80 (Cryptococcus neoformans) | MIC80 (Nakaseomyces glabratus) | MIC80 (Candida parapsilosis) | MIC80 (Candida albicans [1]) | MIC80 (Nannizzia gypsea) | survival at 16 µg/mL (Candida albicans [2]) | Activity (Candida albicans [3])
O=C(Nc1nc2ccc(NC(=O)[C@@H]3CCC[C@H](NCc4cnc5ccccc5c4)C3)cc2s1)C1CCCC1 | 8 µg/mL (≈ 15.2 µM) | 4 µg/mL (≈ 7.58 µM) | > 64 µg/mL | 8 µg/mL (≈ 15.2 µM) | 8 µg/mL (≈ 15.2 µM) | > 64 µg/mL | – | –
O=C(Nc1nc2ccc(NC(=O)[C@@H]3CCC[C@H](NCc4ccc5ccccc5c4)C3)cc2s1)C1CCCC1 (racemic) | > 64 µg/mL | > 64 µg/mL | > 64 µg/mL | > 64 µg/mL | 4 µg/mL (≈ 7.59 µM) | > 64 µg/mL | – | –
O=C(Nc1nc2ccc(NC(=O)[C@@H]3CCC[C@H](NCc4ccc5ccccc5c4Br)C3)cc2s1)C1CCCC1 (relative stereo) | 64 µg/mL (≈ 106 µM) | > 64 µg/mL | > 64 µg/mL | > 64 µg/mL | > 64 µg/mL | 64 µg/mL (≈ 106 µM) | – | –
COc1ccc2cc(CN[C@H]3CCC[C@@H](C(=O)Nc4ccc5nc(NC(=O)C6CCCC6)sc5c4)C3)ccc2c1 (relative stereo) | > 64 µg/mL | > 64 µg/mL | > 64 µg/mL | > 64 µg/mL | > 64 µg/mL | > 64 µg/mL | – | –
O=C(Nc1nc2ccc(NC(=O)[C@@H]3CCC[C@H](NCc4cccc5ccccc45)C3)cc2s1)C1CCCC1 (relative stereo) | > 64 µg/mL | > 64 µg/mL | > 64 µg/mL | > 64 µg/mL | > 64 µg/mL | > 64 µg/mL | – | –
COc1ccc2ccccc2c1CN[C@H]1CCC[C@@H](C(=O)Nc2ccc3nc(NC(=O)C4CCCC4)sc3c2)C1 (relative stereo) | 64 µg/mL (≈ 115 µM) | > 64 µg/mL | > 64 µg/mL | > 64 µg/mL | > 64 µg/mL | 64 µg/mL (≈ 115 µM) | – | –
COc1ccc(CN[C@H]2CCC[C@@H](C(=O)Nc3ccc4nc(NC(=O)C5CCCC5)sc4c3)C2)c2ccccc12 (relative stereo) | > 64 µg/mL | > 64 µg/mL | > 64 µg/mL | > 64 µg/mL | > 64 µg/mL | > 64 µg/mL | – | –
CCOc1ccc2ccccc2c1CN[C@H]1CCC[C@@H](C(=O)Nc2ccc3nc(NC(=O)C4CCCC4)sc3c2)C1 (relative stereo) | 64 µg/mL (≈ 112 µM) | > 64 µg/mL | > 64 µg/mL | > 64 µg/mL | > 64 µg/mL | 64 µg/mL (≈ 112 µM) | – | –
O=C(Nc1nc2ccc(NC(=O)[C@@H]3CCC[C@H](NCc4ccc5ccccc5n4)C3)cc2s1)C1CCCC1 (relative stereo) | > 64 µg/mL | > 64 µg/mL | > 64 µg/mL | > 64 µg/mL | > 64 µg/mL | > 64 µg/mL | – | –
O=C(Nc1nc2ccc(NC(=O)[C@@H]3CCC[C@H](NCc4cc5ccccc5nc4Cl)C3)cc2s1)C1CCCC1 (relative stereo) | > 64 µg/mL | > 64 µg/mL | > 64 µg/mL | > 64 µg/mL | > 64 µg/mL | > 64 µg/mL | – | –
O=C(Nc1nc2ccc(NC(=O)[C@@H]3CCC[C@H](NCC4CNc5ccccc5C4)C3)cc2s1)C1CCCC1 (relative stereo) | > 64 µg/mL | > 64 µg/mL | > 64 µg/mL | > 64 µg/mL | 32 µg/mL (≈ 60.2 µM) | 64 µg/mL (≈ 120 µM) | – | –
O=C(Nc1nc2ccc(NC(=O)[C@@H]3CCC[C@H](NCc4ccnc5ccccc45)C3)cc2s1)C1CCCC1 (relative stereo) | > 64 µg/mL | > 64 µg/mL | > 64 µg/mL | > 64 µg/mL | > 64 µg/mL | 16 µg/mL (≈ 30.3 µM) | – | –
O=C(Nc1nc2ccc(NC(=O)[C@@H]3CCC[C@H](NCc4ccc5ncccc5c4)C3)cc2s1)C1CCCC1 (relative stereo) | 4 µg/mL (≈ 7.58 µM) | 4 µg/mL (≈ 7.58 µM) | 0.125 µg/mL (≈ 0.237 µM) | 4 µg/mL (≈ 7.58 µM) | 4 µg/mL (≈ 7.58 µM) | > 64 µg/mL | 60% | –
O=C(Nc1nc2ccc(NC(=O)[C@@H]3CCC[C@H](NCC4CCc5ncccc5C4)C3)cc2s1)C1CCCC1 (relative stereo) | > 64 µg/mL | > 64 µg/mL | > 64 µg/mL | 64 µg/mL (≈ 120 µM) | 16 µg/mL (≈ 30.1 µM) | > 64 µg/mL | – | –
O=C(Nc1nc2ccc(NC(=O)[C@@H]3CCC[C@H](NCc4cccc5cccnc45)C3)cc2s1)C1CCCC1 (relative stereo) | > 64 µg/mL | > 64 µg/mL | > 64 µg/mL | > 64 µg/mL | > 64 µg/mL | > 64 µg/mL | – | –
O=C(Nc1nc2ccc(NC(=O)[C@@H]3CCC[C@H](NCc4ccc5ccccc5c4)C3)cc2o1)C1CCCC1 (relative stereo) | > 64 µg/mL | > 64 µg/mL | > 64 µg/mL | > 64 µg/mL | > 64 µg/mL | 1 µg/mL (≈ 1.96 µM) | – | –
O=C(Nc1nc2ccc(NC(=O)[C@@H]3CCC[C@H](NCc4ccc5ccccc5n4)C3)cc2o1)C1CCCC1 (relative stereo) | > 64 µg/mL | > 64 µg/mL | > 64 µg/mL | > 64 µg/mL | > 64 µg/mL | 1 µg/mL (≈ 1.95 µM) | – | –
O=C(Nc1ccc2nc(NC(=O)[C@@H]3CCC[C@H](NCc4ccc5ccccc5c4)C3)sc2c1)C1CCCC1 (relative stereo) | 32 µg/mL (≈ 60.8 µM) | 32 µg/mL (≈ 60.8 µM) | 16 µg/mL (≈ 30.4 µM) | > 64 µg/mL | 8 µg/mL (≈ 15.2 µM) | 32 µg/mL (≈ 60.8 µM) | – | –
O=C(Nc1ccc2nc(NC(=O)[C@@H]3CCC[C@H](NCc4ccc5ccccc5n4)C3)sc2c1)C1CCCC1 (relative stereo) | > 64 µg/mL | > 64 µg/mL | > 64 µg/mL | > 64 µg/mL | > 64 µg/mL | 64 µg/mL (≈ 121 µM) | – | –
O=C(Nc1ccc2nc(NC(=O)[C@@H]3CCC[C@H](NCc4cnc5ccccc5c4)C3)sc2c1)C1CCCC1 (relative stereo) | > 64 µg/mL | > 64 µg/mL | > 64 µg/mL | > 64 µg/mL | > 64 µg/mL | 64 µg/mL (≈ 121 µM) | – | –
O=C(Nc1ccc2nc(NC(=O)[C@@H]3CCC[C@H](NCc4ccnc5ccccc45)C3)sc2c1)C1CCCC1 (relative stereo) | > 64 µg/mL | 16 µg/mL (≈ 30.3 µM) | 16 µg/mL (≈ 30.3 µM) | > 64 µg/mL | > 64 µg/mL | > 64 µg/mL | – | –
O=C(Nc1ccc2nc(NC(=O)[C@@H]3CCC[C@H](NCc4ccc5ncccc5c4)C3)sc2c1)C1CCCC1 (relative stereo) | > 64 µg/mL | > 64 µg/mL | > 64 µg/mL | > 64 µg/mL | > 64 µg/mL | 32 µg/mL (≈ 60.6 µM) | – | –
O=C(Nc1nc(-c2ccc(NC(=O)[C@H]3CCC[C@@H](NCc4ccc5ccccc5c4)C3)cc2)cs1)C1CCCC1 (relative stereo) | 32 µg/mL (≈ 57.9 µM) | > 64 µg/mL | > 64 µg/mL | > 64 µg/mL | > 64 µg/mL | 0.125 µg/mL (≈ 0.226 µM) | – | –
OC(Cn1cncn1)(Cn1cncn1)c1ccc(F)cc1F [FLUCONAZOLE] | 4 µg/mL (≈ 13.1 µM) | 16 µg/mL (≈ 52.2 µM) | 2 µg/mL (≈ 6.53 µM) | 2 µg/mL (≈ 6.53 µM) | 0.5 µg/mL (≈ 1.63 µM) | 32 µg/mL (≈ 104 µM) | – | Active
